What was measured:
OVCAR-8 tumors = experiment: OVCAR-8 Tumor Xenograft Efficacy Study (IP); assay type: in vivo, mouse
Protocol: Animals were dosed IP daily with vehicle alone, C9 (50 or 100 mg/kg), or C12 (25 or 50 mg/kg). […] Tumor volume and body weight assessment performed as described above. After the final dose on day 46, plasma pharmacokinetic analysis was performed as described above except blood was drawn by retro-orbital bleed method.

BT-549 TNBC cells = experiment: Western blot and cGAS/γH2A.X immunostaining (Example 8); assay type: cell-based, human; details: 0.2 μM, 48 hours
Protocol: In order to analyze the effects on mitosis, BT-549 TNBC cells were seeded into 6-well plates at a density of 100,000 per well in 3 replicate wells in 4 mL of complete growth media. The next day, cells were treated with DMSO, KIF18A inhibitor #1 (Compound C11, 0.5 μM), or KIF18A inhibitor #2 (Compound C9, 0.01 μM) in 4 mL of complete media at a final DMSO concentration of 0.5%. After 48 hours, cell lysates were prepared for each treatment group (combined media and cells from 3 wells) using Minute™ Total Protein Extraction kit (SD-001, Invent Biotechnologies) lysis conditions according to manufactures protocol, supplemented with protease inhibitor cocktail (cOmplete™, Roche) and phospatase inhibitors (PhosphoStop, Roche). Primary antibodies included rabbit anti-p-Histone H3 (serine-10) (06-570, Millipore, 1: 2000), mouse anti-γH2A.X (serine-139) (05-636, Millipore, 1: 2000), mouse anti-cleaved-PARP (cl-PARP) (#51-900017, BD Pharmingen, 1:500), mouse anti-BubR1 (612503, BD Pharmingen, 1:5000), mouse anti-total HEC1 (ab3613, ABCAM, 1: 1000), rabbit anti-pHEC1(serine-55) (GTX70017, Genetex, 1: 500), and rabbit anti-GAPDH (2118, Cell Signaling, 1:10,000).
Also, cGAS and γH2A.X (serine-139) immunostaining in BT-549 TNBC cells was carried out. […] Wide-field images were captured using 40×objective on upright Nikon Eclipse NI-E epi-fluorescence microscope running Elements software.

[1] = test system: OVCAR-8 NCI/ADR-RES cells; experiment: Nuclear count assay in multidrug resistant cells, with or without P-gp inhibitor; assay type: cell-based, human; details: OVCAR-8 NCI-ADR RES subline, Count POC (FIG. 3E)
Protocol: Compound was added to the cells with a final volume of 200 μL in complete media containing 0.5% DMSO.
The plates were sealed and incubated for 1 hour at room temperature in the dark. Cells were stored at 4° C. in the dark until data acquisition. […] The Total Valid Object Count was represented as a Count POC (Percentage of DMSO Control) using the following formula:
Briefly, OVCAR-8 cells were seeded in duplicate in a Corning 96-well Flat Clear Bottom Black Polystyrene plates (Corning, N.Y.) in 100 μL of appropriate complete media at the appropriate density and grown for 24 hours. […] After 4 days (96 hours) of treatment, the cells were fixed by removing 100 μL of complete media from each well and replacing it with 100 μL of 2×formaldehyde (final 4%) and incubating the plates for 15 minutes at room temperature. […] The plates were sealed and incubated for 1 hour at room temperature in the dark. Cells were stored at 4° C. in the dark until data acquisition. […] The Total Valid Object Count was represented as a Count POC (Percentage of DMSO Control) using the following formula:
Count POC=(Total Valid Object Count in treated well)[…](Total Valid Object Count in DMSO treated wells)×100
Compound concentration and Count POC values were plotted using GraphPad Prism software (V7.0.4) and curve-fitting was performed with 4-parameter equation (variable slope). The concentration-response curves and standard deviation represent two independent experiments run in duplicate.

[2] = test system: human OVCAR-3 HGSOC xenograft model (TP53MUT, CCNE1AMP); experiment: OVCAR-3 xenograft efficacy study, oral dosing (Example 3); assay type: in vivo, mouse; details: for tumor regression: day 25 to day 45
Protocol: Female athymic nude mice were injected with 5×10^6 cells in 0.1 mL subcutaneously in the right flank. After tumors were established (average tumor volume of 150 mm^3), animals were randomized into 4 treatment groups (vehicle alone, KIF18A inhibitor at 10, 30, or 100 mg/kg) with 10 animals per group and treated orally once per day (PO, QD) starting on day 25 post-tumor implantation. Tumor measurement was calculated from the length, width and height of tumors measured with a PRO-MAX electronic digital caliper (Japan Micrometer Mfg. Co. LTD). The tumor volume was calculated as [L×W×H] and expressed in mm^3. Tumor volume and animal body weight measurements were determined twice per week (study start day 25, study end day 45). A single mouse was removed from the study (KIF18A inhibitor 30 mg/kg group) due to abdominal distention, a finding likely unrelated to compound.
Tumor Growth Inhibition (TGI) and Tumor Regression formulas.
Data was plotted using GraphPad Prism software (V7.0.4), tumor volume and body weight data are expressed as means plus or minus standard error of the mean and plotted as a function of time. Statistical significance of observed differences between growth curves were calculated using SLACR package (v.1.0.3). Statistical significance for tumor regressions were performed by paired Student's t-Test on the initial and final tumor volumes with significant tumor regression p-values (***p≤0.0001) for all three KIF18A inhibitor treatment groups. KIF18A inhibitor dose 10 mg/kg (81% regression, 5 of 10 tumor-free), 30 mg/kg (98% regression, 8 of 9 tumor-free), and 100 mg/kg (97% regression, 7 of 10 tumor-free).

Compound: CC(C)(C)NS(=O)(=O)c1cccc(NC(=O)c2ccc(S(=O)(=O)NC(C)(C)C)cc2N2CCC3(CC2)CC3)c1 [Compound C9, 4-(N-(tert-butyl)sulfamoyl)-N-(3-(N-(tert-butyl)sulfamoyl)phenyl)-2-(6-azaspiro[2.5]octan-6-yl)benzamide]
- tumor regression (OVCAR-8 tumors; 50 mg/kg IP once daily for 18 consecutive days): 16%
- tumor regression (OVCAR-8 tumors; 100 mg/kg IP once daily for 18 consecutive days): 73%
- cGAS and γH2A.X staining of cytoplasmic micronuclei (BT-549 TNBC cells): increase in DNA damage and cGAS positive micronuclei

Compound: Cc1cc(NC(=O)c2ccc(NS(=O)(=O)CCO)cc2N2CCC3(CC2)CC3)nc(N2CCC(F)(F)CC2)n1 [Compound C14, N-(2-(4,4-Difluoropiperidin-1-yl)-6-methylpyrimidin-4-yl)-4-((2-hydroxyethyl)sulfonamido)-2-(6-azaspiro[2.5]octan-6-yl)benzamide]
- sensitivity of the cell line compared with PARP inhibitor, paclitaxel, doxorubicin, carboplatin [1]: greatest sensitivity
- tumor-free animals ([2]; 10 mg/kg PO QD): 5 of 10
- tumor regression ([2]; 10 mg/kg PO QD): 81%
- tumor-free animals ([2]; 30 mg/kg PO QD): 8 of 9
- tumor regression ([2]; 30 mg/kg PO QD): 98%
- tumor-free animals ([2]; 100 mg/kg PO QD): 7 of 10
- tumor regression ([2]; 100 mg/kg PO QD): 97%
- durable tumor regressions and cures, share of the animals ([2]; tumor re-growth assessment after cessation of treatment): ≥ 50%
